Reference: patent publication US11066369B2, “N-(pyridin-2-yl)pyridine-sulfonamide derivatives and their use in the treatment of disease” (Novartis AG, priority 2016, dated 2021)
Counter-ions that a name gives are not always drawn.

Columns and labels:
[1] = target: T1, horseradish peroxidase (HRP) tagged delF508-CFTR (Homo sapiens, UniProt P13569, DEL508-508); assay: Measurement of delF508-CFTR-HRP surface expression in CFBE41o- cells; assay type: cell-based; details: delF508-CFTR-HRP surface expression, CFBE41o- cells; for Emax: read-out: DelF508-CFTR-HRP Amax %; for EC50: read-out: DelF508-CFTR-HRP EC50;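 on DelF508-CFTR-HRP Amax %: percent efficacy relative to reference corrector lumacaftor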
T1 construct: expressed in transfected cells
In short: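 CFBE41o- bronchial epithelial cells stably expressing delF508-CFTR with HRP in the fourth extracellular loop; expression induced 48h with 500 ng/mL doxycycline, then compounds added (top 10 μM, 10-point 3-fold series, ≤0.5% DMSO) for 24h at 37° C. Surface HRP measured by luminescence with cell-impermeant substrate; EC50 from logistic fit of triplicates, plate-normalized to lowest concentration; efficacy also relative to a reference corrector.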

delF508-CFTR = target: T2, delF508-CFTR (Homo sapiens, UniProt P13569, DEL508-508); assay: Measurement of delF508-CFTR functional activity in primary human bronchial epithelial cells (HBECs) using Multi-Transepithelial Clamp Circuit (MTECC-24) assay; assay type: cell-based; details: primary CF HBECs; for MTECC24 CFHBEC- Amax %: test compound added 24h before assay plus potentiator, relative to reference combination (2 μM corrector + 0.5 μM potentiator); for EC50: test compound added 24h before assay, in the presence of potentiator, mean of at least two replicates, read-out: MTECC24 CFHBEC- EC50
T2 construct: functional activity of the CFTR channel (Chloride ion transport) in patient derived primary human bronchial epithelial cells; host or cells: patient-derived primary human bronchial epithelial cells (delF508-CFTR)
In short: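 Patient-derived primary delF508-CFTR HBECs, differentiated at air-liquid interface ~2 weeks, treated basolaterally with compound for 24 h, then apical and basolateral compound in HEPES pH 7.4 assay medium. Equivalent short-circuit current (Ieq) recorded on MTECC-24 with sequential amiloride, forskolin, potentiator and INH-172; normalized to 0.1% DMSO, EC50 from curve fit.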

T1 sequence (P13569 with tags, fused parts or gaps DEL508-508): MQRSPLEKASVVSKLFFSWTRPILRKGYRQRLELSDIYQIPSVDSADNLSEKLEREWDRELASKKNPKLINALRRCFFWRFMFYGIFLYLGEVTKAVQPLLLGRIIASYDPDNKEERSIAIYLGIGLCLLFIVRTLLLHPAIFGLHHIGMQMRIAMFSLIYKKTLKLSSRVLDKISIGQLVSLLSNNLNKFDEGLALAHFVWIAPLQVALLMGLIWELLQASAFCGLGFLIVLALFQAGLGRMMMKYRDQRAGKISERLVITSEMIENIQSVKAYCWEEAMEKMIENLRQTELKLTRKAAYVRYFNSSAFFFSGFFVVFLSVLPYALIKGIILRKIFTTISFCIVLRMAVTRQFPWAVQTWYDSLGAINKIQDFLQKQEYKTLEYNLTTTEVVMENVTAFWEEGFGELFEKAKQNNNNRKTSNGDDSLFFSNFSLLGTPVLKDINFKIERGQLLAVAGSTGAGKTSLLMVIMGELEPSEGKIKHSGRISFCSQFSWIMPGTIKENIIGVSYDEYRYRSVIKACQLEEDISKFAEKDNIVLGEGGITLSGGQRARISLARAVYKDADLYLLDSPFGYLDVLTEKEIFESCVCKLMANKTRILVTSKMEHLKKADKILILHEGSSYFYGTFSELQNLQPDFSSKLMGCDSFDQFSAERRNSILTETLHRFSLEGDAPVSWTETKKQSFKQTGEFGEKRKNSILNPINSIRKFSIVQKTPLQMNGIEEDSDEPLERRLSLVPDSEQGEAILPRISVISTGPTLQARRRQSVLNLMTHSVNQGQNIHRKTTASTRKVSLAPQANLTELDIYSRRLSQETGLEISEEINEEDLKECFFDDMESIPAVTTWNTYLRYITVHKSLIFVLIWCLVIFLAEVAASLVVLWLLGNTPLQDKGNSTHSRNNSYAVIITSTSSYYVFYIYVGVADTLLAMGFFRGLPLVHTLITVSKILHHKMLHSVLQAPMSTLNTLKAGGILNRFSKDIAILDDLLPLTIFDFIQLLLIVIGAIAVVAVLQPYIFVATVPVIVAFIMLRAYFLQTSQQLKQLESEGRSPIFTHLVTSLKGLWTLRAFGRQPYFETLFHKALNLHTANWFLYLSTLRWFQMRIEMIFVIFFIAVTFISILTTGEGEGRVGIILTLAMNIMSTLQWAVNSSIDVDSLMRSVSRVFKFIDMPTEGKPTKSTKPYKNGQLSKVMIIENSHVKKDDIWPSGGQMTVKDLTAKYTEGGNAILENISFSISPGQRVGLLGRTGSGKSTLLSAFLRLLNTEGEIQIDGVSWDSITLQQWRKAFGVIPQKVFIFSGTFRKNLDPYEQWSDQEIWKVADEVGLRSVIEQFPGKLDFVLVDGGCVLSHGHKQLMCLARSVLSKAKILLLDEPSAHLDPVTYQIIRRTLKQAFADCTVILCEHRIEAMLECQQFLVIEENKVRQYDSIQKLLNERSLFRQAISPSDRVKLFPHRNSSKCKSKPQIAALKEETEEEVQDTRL
T2 sequence (P13569 with tags, fused parts or gaps DEL508-508): as above

Emax [1] | EC50 [1] | MTECC24 CFHBEC- Amax % (delF508-CFTR) | EC50 (delF508-CFTR) | Compound
418% | 3.05 µM | 88.1% | 0.0315 µM | Cc1ccccc1-c1nc(NS(=O)(=O)c2cccc(N3CCC4(CC[C@@H]4N)CC3)n2)ccc1C(F)(F)F [Example 306, (S)-6-(1-amino-7-azaspiro[3.5]nonan-7-yl)-N-(6-(o-tolyl)-5-(trifluoromethyl)pyridin-2-yl)pyridine-2-sulfonamide]
 | 1.88 µM | 69.6% | 0.0024 µM | Cc1ccccc1-c1nc(NS(=O)(=O)c2cccc(N[C@H]3COCC[C@H]3O)n2)ccc1C(F)(F)F (single isomer, unassigned) [Example 282]
 | 1.72 µM | 54.8% | 0.0195 µM | Cc1cccc(C)c1-c1nc(NS(=O)(=O)c2cccc(O[C@H]3CC[C@@H](C(=O)O)CC3)n2)ccc1Cl [Example 129, (1s,4s)-4-((6-(N-(5-chloro-6-(2,6-dimethylphenyl)pyridin-2-yl)sulfamoyl)pyridin-2-yl)oxy)cyclohexane-1-carboxylic Acid]
817% | 2.01 µM | 85.1% | 0.0046 µM | Cc1ccccc1-c1nc(NS(=O)(=O)c2cccc(N[C@H]3CCOC[C@H]3O)n2)ccc1C(F)(F)F (single isomer, unassigned) [Example 277]
809% | 0.928 µM | 91.2% | 0.0014 µM | O=C(O)[C@H]1CCCN(c2cccc(S(=O)(=O)Nc3ccc(C(F)(F)F)c(-c4ccccc4C4CCC4)n3)n2)C1 [Example 367, (S)-1-(6-(N-(6-(2-cyclobutylphenyl)-5-(trifluoromethyl)pyridin-2-yl)sulfamoyl)pyridin-2-yl)piperidine-3-carboxylic Acid]
231% | 1.15 µM | 66.3% | 0.209 µM | Cc1ccc(F)cc1-c1nc(NS(=O)(=O)c2cccc(N3C[C@@H](C)N[C@@H](C)C3)n2)ccc1C(F)(F)F [Example 178, 6-((3S,5R)-3,5-dimethylpiperazin-1-yl)-N-(6-(5-fluoro-2-methylphenyl)-5-(trifluoromethyl)pyridin-2-yl)pyridine-2-sulfonamide Hydrochloride]
628% | 2.29 µM | 81.2% | 0.014 µM | Cc1ccc(F)cc1-c1nc(NS(=O)(=O)c2cccc(N3CCC(C)(C(=O)O)CC3)n2)ccc1C(F)(F)F [Example 262, 1-(6-{[6-(5-fluoro-2-methylphenyl)-5-(trifluoromethyl)pyridin-2-yl]sulfamoyl}pyridin-2-yl)-4-methylpiperidine-4-carboxylic Acid]
565% | 3.41 µM | 64.5% | 0.0132 µM | Cc1ccccc1-c1nc(NS(=O)(=O)c2cccc(N3CCNC(=O)C3)n2)ccc1C(F)(F)F [Example 190, 6-(3-oxopiperazin-1-yl)-N-(6-(o-tolyl)-5-(trifluoromethyl)pyridin-2-yl)pyridine-2-sulfonamide]
418% | 2.63 µM | 63.7% | 0.0052 µM | Cc1c(F)cccc1-c1nc(NS(=O)(=O)c2cccc(N3CCN(C(C)(C)C)CC3)n2)ccc1C(F)(F)F [Example 142, 6-(4-(tert-butyl)piperazin-1-yl)-N-(6-(3-fluoro-2-methylphenyl)-5-(trifluoromethyl)pyridin-2-yl)pyridine-2-sulfonamide]
312% | 2.63 µM | 81.3% | 0.0443 µM | Cc1ccc(C#N)cc1-c1nc(NS(=O)(=O)c2cccc(N3CC(C)(O)C3)n2)ccc1Cl [Example 305, N-(5-chloro-6-(5-cyano-2-methylphenyl)pyridin-2-yl)-6-(3-hydroxy-3-methylazetidin-1-yl)pyridine-2-sulfonamide]
744% | 1.83 µM | 59.4% | 0.011 µM | Cc1cccc(C)c1-c1nc(NS(=O)(=O)c2cccc(N3CCC(C)(C(=O)O)CC3)n2)ccc1Cl [Example 250, 1-(6-(N-(5-chloro-6-(2,6-dimethylphenyl)pyridin-2-yl)sulfamoyl)pyridin-2-yl)-4-methylpiperidine-4-carboxylic Acid]
476% | 0.743 µM | 88.2% | 0.0233 µM | Cc1ccccc1-c1nc(NS(=O)(=O)c2cccc(N3CCN(C(=O)OC(C)(C)C)CC3)n2)ccc1C(F)(F)F [Example 160, tert-butyl 4-(6-(N-(6-(o-tolyl)-5-(trifluoromethyl)pyridin-2-yl)sulfamoyl)pyridin-2-yl)piperazine-1-carboxylate]
370% | 3.16 µM | 60.8% | 0.107 µM | CO[C@@H]1CNCC[C@H]1Nc1cccc(S(=O)(=O)Nc2ccc(C(F)(F)F)c(-c3ccccc3C)n2)n1 (racemic) [Example 116, 6-(((3R,4R)-3-methoxypiperidin-4-yl)amino)-N-(6-(o-tolyl)-5-(trifluoromethyl)pyridin-2-yl)pyridine-2-sulfonamide Hydrochloride]
206% | 3.86 µM | 64.4% | 0.101 µM | Cc1ccccc1-c1nc(NS(=O)(=O)c2cccc(N3CCN(C(=O)CN)CC3)n2)ccc1C(F)(F)F [Example 191, 6-(4-glycylpiperazin-1-yl)-N-(6-(o-tolyl)-5-(trifluoromethyl)pyridin-2-yl)pyridine-2-sulfonamide hydrochloride]
641% | 2.36 µM | 81.9% | 0.011 µM | Cc1ccccc1-c1nc(NS(=O)(=O)c2cccc(O[C@@H]3COC[C@]3(C)O)n2)ccc1C(F)(F)F (single isomer, unassigned) [Example 294]
389% | 3.06 µM | 82.4% | 0.0096 µM | Cc1ccccc1-c1nc(NS(=O)(=O)c2cccc(N3CCN(C)C(=O)C3)n2)ccc1C(F)(F)F [Example 196, 6-(4-methyl-3-oxopiperazin-1-yl)-N-(6-(o-tolyl)-5-(trifluoromethyl)pyridin-2-yl)pyridine-2-sulfonamide]
372% | 2.8 µM | 65.6% | 0.028 µM | Cc1ccccc1-c1nc(NS(=O)(=O)c2cccc(N3CCC(C)(N)CC3)n2)ccc1C(F)(F)F [Example 110, 6-(4-amino-4-methylpiperidin-1-yl)-N-(6-(o-tolyl)-5-(trifluoromethyl)pyridin-2-yl)pyridine-2-sulfonamide Hydrochloride]
427% | 1.71 µM | 61.1% | 0.0106 µM | O=S(=O)(Nc1ccc(C(F)(F)F)c(-c2ccccc2Cl)n1)c1cccc(N2CC(O)C2)n1 [Example 222, N-(6-(2-chlorophenyl)-5-(trifluoromethyl)pyridin-2-yl)-6-(3-hydroxyazetidin-1-yl)pyridine-2-sulfonamide]
332% | 2.68 µM | 84.9% | 0.17 µM | CNC1CCN(c2cccc(S(=O)(=O)Nc3ccc(C(F)(F)F)c(-c4ccccc4C)n3)n2)CC1 [Example 109, 6-(4-(methylamino)piperidin-1-yl)-N-(6-(o-tolyl)-5-(trifluoromethyl)pyridin-2-yl)pyridine-2-sulfonamide Hydrochloride]
240% | 1.73 µM | 46.1% | 0.0512 µM | COc1ccc(F)cc1-c1nc(NS(=O)(=O)c2cccc(N)n2)ccc1Cl [Example 62, 6-amino-N-(5-chloro-6-(5-fluoro-2-methoxyphenyl)pyridin-2-yl)pyridine-2-sulfonamide]
403% | 2.67 µM | 104.9% | 0.0491 µM | O=S(=O)(Nc1ccc(Cl)c(-c2ccccc2Cl)n1)c1cccc(N2CC(O)C2)n1 [Example 227, N-(5-chloro-6-(2-chlorophenyl)pyridin-2-yl)-6-(3-hydroxyazetidin-1-yl)pyridine-2-sulfonamide]
 | 1.76 µM | 71.6% | 0.0086 µM | Cc1cccc(C)c1-c1nc(NS(=O)(=O)c2cccc(N3CC(O)(C4CC4)C3)n2)ccc1Cl [Example 211, N-(5-chloro-6-(2,6-dimethylphenyl)pyridin-2-yl)-6-(3-cyclopropyl-3-hydroxyazetidin-1-yl)pyridine-2-sulfonamide]
570% | 2.03 µM | 71.2% | 0.0979 µM | Cc1cccc(C)c1-c1cc(C(F)(F)F)cc(NS(=O)(=O)c2cccc(N3CCNCC3)n2)n1 [Example 133, N-(6-(2,6-dimethylphenyl)-4-(trifluoromethyl)pyridin-2-yl)-6-(piperazin-1-yl)pyridine-2-sulfonamide Hydrochloride]
